From US20120220581A1, “IMIDAZO[1,2-b]PYRIDAZINE DERIVATIVES AND THEIR USE AS PDE10 INHIBITORS” (Janssen-Cilag, S.A., priority 2009, published 2012)

Assays:
[1] = system: apomorphine-induced stereotypy in rats; assay: Apomorphine-induced stereotypy in rats (APO); assay type: in vivo; conditions: Rattus norvegicus, n.d.: found not active at threshold dose 2.5 mg/kg or 10 mg/kg (a)
Description: Apomorphine (1.0 mg/kg, i.v.)-induced stereotypy (compulsive sniffing, licking, chewing) was scored every 5 min over the first hour after injection of apomorphine, following a 1 hour interval pre-treatment with the test compound. The score system was: (3) pronounced, (2) moderate, (1) slight, and (0) absent.

[2] = molecular target: T1, Rat recombinant PDE10A (rPDE10A2) (Rattus norvegicus, UniProt Q9QYJ6); assay: In vitro assay PDE10A (SPA, 3H-cAMP); assay type: biochemical; conditions: pIC50 corresponds to the −log IC50 expressed in mol/L; read-out: PDE10A2 pIC50 (converted)
T1 construct: inferred from the Ni metal chelate purification; made in house; host or cells: Sf9 insect cells (baculovirus)
T1 sequence (Q9QYJ6 1-794): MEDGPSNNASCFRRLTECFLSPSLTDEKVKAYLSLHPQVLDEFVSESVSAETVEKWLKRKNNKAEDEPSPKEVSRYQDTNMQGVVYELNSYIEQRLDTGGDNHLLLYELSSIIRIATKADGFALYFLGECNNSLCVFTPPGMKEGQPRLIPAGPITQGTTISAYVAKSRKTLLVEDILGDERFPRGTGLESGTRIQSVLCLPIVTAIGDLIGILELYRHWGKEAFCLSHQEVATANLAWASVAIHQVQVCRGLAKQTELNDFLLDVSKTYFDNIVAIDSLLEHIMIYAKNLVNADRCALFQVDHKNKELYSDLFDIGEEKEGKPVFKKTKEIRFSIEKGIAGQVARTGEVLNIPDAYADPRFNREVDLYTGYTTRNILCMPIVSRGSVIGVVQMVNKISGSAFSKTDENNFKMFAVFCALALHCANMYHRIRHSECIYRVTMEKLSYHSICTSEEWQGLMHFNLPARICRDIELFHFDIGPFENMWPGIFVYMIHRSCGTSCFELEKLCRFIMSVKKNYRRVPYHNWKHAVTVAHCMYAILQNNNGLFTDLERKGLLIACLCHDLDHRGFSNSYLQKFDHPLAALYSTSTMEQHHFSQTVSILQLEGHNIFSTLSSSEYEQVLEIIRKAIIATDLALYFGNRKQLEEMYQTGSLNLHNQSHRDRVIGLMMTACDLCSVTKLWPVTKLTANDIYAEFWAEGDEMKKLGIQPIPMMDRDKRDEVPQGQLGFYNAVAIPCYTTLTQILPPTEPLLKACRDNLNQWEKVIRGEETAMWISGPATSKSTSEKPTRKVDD
Description: Rat recombinant PDE10A (rPDE10A2) was expressed in Sf9 cells using a recombinant rPDE10A baculovirus construct. Cells were harvested after 48 h of infection and the rPDE10A protein was purified by metal chelate chromatography on Ni-sepharose 6FF. Tested compounds were dissolved and diluted in 100% DMSO to a concentration 100 fold of the final concentration in the assay. Compound dilutions (0.4 μl) were added in 384 well plates to 20 μl of incubation buffer (50 mM Tris pH 7.8, 8.3 mM MgCl2, 1.7 mM EGTA). 10 μl of rPDE10A enzyme in incubation buffer was added and the reaction was started by addition of 10 μl substrate to a final concentration of 60 nM cAMP and 0.008 μCi ^3H-cAMP. The reaction was incubated for 60 minutes at room temperature. […] After sedimentation of the beads during 30 minutes the radioactivity was measured in a Perkin Elmer Topcount scintillation counter and results were expressed as cpm. For blanc values the enzyme was omitted from the reaction and replaced by incubation buffer. Control values were obtained by addition of a final concentration of 1% DMSO instead of compound. The same assay principle is applied for the measurement of the affinity of the compound for other members of the PDE family with appropriate modifications in incubation buffer, substrate concentration, incubation time and stop solution.

[3] = po, * not soluble, tested orally as a suspension

SMILES | ED50 ([1]; not further tested) [mg/kg] | IC50 [2] [nM] | ED50 [1, 3] [mg/kg]
COCCc1ccc(-c2c(C(F)(F)F)nc3c(N4CCOCC4)ccnn23)cn1 [compound 145, 3-[6-(2-methoxyethyl)-3-pyridinyl]-8-(4-morpholinyl)-2-(trifluoromethyl)-imidazo[1,2-b]pyridazine] | > 2.5 | 58.9 | 
CCc1ccc(-c2cnc3c(N4CCOCC4)ccnn23)cn1 [compound 109, 3-(6-ethyl-3-pyridinyl)-8-(4-morpholinyl)-imidazo[1,2-b]pyridazine] | > 2.5 | 251 | 
Cc1nc2c(N3CCOCC3)ccnn2c1-c1ccnc(N2CCNCC2)c1 [compound 103, 2-methyl-8-(4-morpholinyl)-3-[2-(1-piperazinyl)-4-pyridinyl]-imidazo[1,2-b]pyridazine] | > 2.5 | 257 | 
COCCOc1ccc(-c2c(C)nc3c(-c4ccncc4)cc(C)nn23)cn1 [compound 49, 3-[6-(2-methoxyethoxy)-3-pyridinyl]-2,6-dimethyl-8-(4-pyridinyl)-imidazo[1,2-b]pyridazine] | > 2.5 | 209 | 
CCc1ccc(-c2c(C)nc3c(-c4ccncc4)cc(C)nn23)cn1 [compound 88, 3-(6-ethyl-3-pyridinyl)-2,6-dimethyl-8-(4-pyridinyl)-imidazo[1,2-b]pyridazine] | > 2.5 | 115 | 
COC(C)(C)Cc1ccc(-c2c(C3CC3)nc3c(N4CCOCC4)ccnn23)cn1 [compound 45, 2-cyclopropyl-3-[6-(2-methoxy-2-methylpropyl)-3-pyridinyl]-8-(4-morpholinyl)-imidazo[1,2-b]pyridazine] | > 2.5 | 50.1 | 
Cc1nc2c(-c3ccncc3)cc(C3CC3)nn2c1-c1ccc(N2CCNCC2)nc1 [compound 99, 6-cyclopropyl-2-methyl-3-[6-(1-piperazinyl)-3-pyridinyl]-8-(4-pyridinyl)-imidazo[1,2-b]pyridazine] | > 2.5 | 302 | 
COCCOc1ccc(-c2c(C)nc3c(N4CCOCC4)cc(C)nn23)cn1 [compound 69, 3-[6-(2-methoxyethoxy)-3-pyridinyl]-2,6-dimethyl-8-(4-morpholinyl)-imidazo[1,2-b]pyridazine] | > 2.5 | 324 | 
Cc1nc2c(N3CCOCC3)ccnn2c1-c1ccc(N2CCCC2)nc1 [compound 89, 2-methyl-8-(4-morpholinyl)-3-[6-(1-pyrrolidinyl)-3-pyridinyl]-imidazo[1,2-b]pyridazine] |  | 132 | > 2.5
COCCc1cc(-c2c(C)nc3c(N4CCOCC4)ccnn23)ccn1 [compound 26, 3-[2-(2-methoxyethyl)-4-pyridinyl]-2-methyl-8-(4-morpholinyl)-imidazo[1,2-b]pyridazine] | > 2.5 | 30.9 | 
Cc1nc2c(N3CCOCC3)ccnn2c1-c1ccc(CCN2CCCC2)nc1 [compound 77, 2-methyl-8-(4-morpholinyl)-3-[6-[2-(1-pyrrolidinyl)ethyl]-3-pyridinyl]-imidazo[1,2-b]pyridazine] | > 2.5 | 129 | 
Cc1cc(N2CCOCC2)c2nc(C3CC3)c(-c3ccc(C4CCOCC4)nc3)n2n1 [compound 79, 2-cyclopropyl-6-methyl-8-(4-morpholinyl)-3-[6-(tetrahydro-2H-pyran-4-yl)-3-pyridinyl]-imidazo[1,2-b]pyridazine] | > 2.5 | 263 | 
Cc1nc2c(N3CCOCC3)ccnn2c1-c1cnn(Cc2cccnc2)c1 [compound 115, 2-methyl-8-(4-morpholinyl)-3-[1-(3-pyridinylmethyl)-1H-pyrazol-4-yl]-imidazo[1,2-b]pyridazine] |  | 35.5 | > 10
Cc1cc(-c2ccncc2)c2nc(C3CC3)c(-c3ccc(C4CCOCC4)nc3)n2n1 [compound 80, 2-cyclopropyl-6-methyl-8-(4-pyridinyl)-3-[6-(tetrahydro-2H-pyran-4-yl)-3-pyridinyl]-imidazo[1,2-b]pyridazine] | > 2.5 | 44.7 | 
